Reference: patent US12146142B2, “Methods for improving genome engineering and regeneration in plant II” (KWS SAAT SE & Co. KGaA, priority 2018, dated 2024)

Columns and labels:
[1] = tested on: maize A188 plants; test: Phenotype of adult plants regenerated from stable transformation of A188; assay type: in vivo; details: stable transgenic integration, A188, compared to normal A188 plants (FIG. 13)
[2] = tested on: maize A188 immature embryos; test: Embryogenic structure induction after transient co-bombardment of boost gene constructs; assay type: cell-based; details: 1 month after bombardment, co-bombarded with Tdt (FIG. 12)
Method: At 9-12 days post pollination, maize ears (i.e. A188 or Hi II) with immature embryos having a size of 0.8 to 1.8 mm, preferably 1.0-1.5 mm, were harvested. The ears were sterilized with 70% ethanol for 10-15 minutes. After brief air drying in a laminar hood, the top ˜⅓ of the kernels were removed from the ears with a shark scalpel, and the immature embryos were pulled out of the kernels carefully with a spatula. The fresh isolated embryos were placed onto the bombardment target area in an osmotic medium plate (see below) with scutellum-side up. The plates were wrapped with parafilm and incubated at 25° C. in the dark for 4 hours before bombardment. […]
After bombardment, the embryos remained on the osmotic medium for another 16 hours. Transient transformation was examined using a fluorescence microscope for the tDT expression at excitation maximum 554 nm and emission maximum 581 nm 16-20 hours after bombardment. The embryos with dense fluorescent signals under a fluorescence microscope (FIG. 9) were selected and transferred from N6OSM onto a N6-5Ag plate (˜15 embryos per plate) with scutellum-face-up for callus induction (see below). […]
The embryos with dense fluorescent signals under a fluorescence microscope (FIG. 9) were selected and transferred from N6OSM onto N6-5Ag for embryonic callus induction. […] Embryogenic callus induction was monitored by observation under a dissection microscope. […]

[3] = tested on: maize genotype A188; test: Regeneration of transgenic plants after stable integration of boost gene constructs including Pat-Tdt; assay type: cell-based; details: construct including Pat-Tdt
Text: This strong boost effect on the level of the embryo was also effective to the efficiency of regeneration of whole transgenic plant.

[4] = tested on: maize WUS2 promoter; test: Maize WUS2 promoter tDT report construct co-bombarded with boost factor; assay type: cell-based; details: for activation of maize WUS2 promoter / gene: transient co-bombardment in immature embryos and leaves
Text: Homeobox domain transcriptional factor WUSCHEL (WUS) plays an important role in establishing and maintaining of shoot meristem. To identify boost factors that promote endogenous WUS2 expression, the maize WUSCHEL 2 promoter report construct (pAMK-ZmWUS2-tDT-noT) (SEQ ID NO: 29; FIG. 16) was used to illustrate maize WUS2 promoter activity. The maize WUS2 promoter (pZmWUS2) drove expression of the tDT report gene in this report construct (FIG. 16). The WUS2 promoter report construct was co-bombarded with boost factors individually in maize immature embryos and leaf segments.
Fresh leaf segments of 1-2 cm in length were prepared from the in vitro-cultured maize A188 seedling of 10-14 days old, and placed on the Osmotic medium with abaxial side up for 4 hours. For co-bombardment, two plasmids (100 ng of ZmWUS2 promoter report (FIG. 16) and 100 ng of boost construct, e.g. TaRKD4 (FIG. 5)) were premixed and coated onto 100 μg of gold particles size 0.4 μm. Immature embryo preparation, bombardment, and post-bombardment culturing were carried out as described in Example 1 and Example 2. Red fluorescence showing tDT expression was monitored using a fluorescent microscope started at 16 hours after bombardment.

[5] = tested on: maize Hi II genotype; test: Stable transformation of boost gene in Hi II genotype and appearance of the transgenic plants; assay type: in vivo
Text: Stable transformation of ZmPLT7 gene in Hi II genotype was successful.

[6] = tested on: maize Hi II immature embryos; test: Stable transformation frequency of co-delivered tDT report gene without selection; assay type: cell-based; details: transient expression, 10 days after co-bombardment
Method: Maize embryo preparation, transient bombardment, and embryonic callus induction are described in Examples 1 and 2. The embryos were cultured in N6-5Ag medium at 27° C. in the dark for 14 days. tDT fluorescence was used to monitor embryogenic callus induction and stable transformation by observation under a fluorescent microscope. Specifically, the boost effect was measured by its capability to increase transformation frequency (TF) of the tDT report gene […] after bombardment without a selection.
The strong and uniformed tDT fluorescent signals from the emerging embryonic structures in FIG. 14 indicated integration and stable transformation of tDT gene. Stable transformation frequency is defined as the number of embryos with at least one stable tDT fluorescent structures induced from 100 embryos initially used. Stable transformation frequency was measured 10 days after bombardment.

[7] = A188 leaf segments, after bombardment, co-bombarded with pZmWUS2 report

Row | Substance | phenotype of produced transgenic plants [1] | quantification of embryonic structures with Tdt formation per embryo [2] | efficiency of regeneration of transgenic plants [3] | time at which tDT signal peaked [4, 7] | time at which tDT signal was detected [4, 7] | tDT red fluorescent signal ([4]; immature embryos, 44 hours after bombardment, compared to WUS promoter reporter only (weak signals)) | activation of maize WUS2 promoter / gene [4] | activation of maize WUS2 promoter / gene ([4]; listed as TaRKD4) | stable transformation of the boost gene [5] | appearance of transgenic plants ([5]; single construct, compared to normal A188 plants (FIG. 15)) | effect on stable transformation of co-delivered tDT report gene [6]
1 | ZmWUS2: maize WUS2 gene expression construct driven by strong constitutive Brachypodium EF1 promoter (SEQ ID NO: 28; cDNA SEQ ID NO: 1) | without any detrimental phenotype | slightly increased amount/development of embryonic structures per embryo | transgenic plants at a low level of efficiency |  |  |  |  |  |  |  | 
2 | wheat RKD4: wheat RKD4 gene, maize-codon optimized, expression construct driven by Brachypodium EF1 promoter (SEQ ID NO: 34) |  |  |  | around 44 hours | around 36 hours | extremely strong red fluorescent signals | strongly activate maize WUS2 genes | activates maize WUS2 promoter |  |  | 
3 | ZmPLT7: maize PLT7 gene expression construct driven by strong constitutive Brachypodium EF1 promoter (SEQ ID NO: 27; cDNA SEQ ID NO: 3) |  | slightly increased amount/development of embryonic structures per embryo | no transgenic plants have been produced successfully |  |  |  |  |  | successful | comparable appearance than the normal A188 maize plants | promotes stable transformation frequency
